In experiment [1] the test system is Human adenocarcinoma cell line LoVo. Put plainly: Cell Based Screen for Inhibitors of Raf Kinase, LoVo cells. The following applies: four days, SRB. On the procedure:
(§1) • Cell Lines: Human adenocarcinoma cell line LoVo which is known to be growth inhibited by low nM concentrations of a reference standard inhibitor of Ras and human adenocarcinoma cell line CaCo-2, which is known to be growth resistant to the same reference compound. • Cell Media: RPMI 1640 with 10% Fetal Bovine Serum supplemented with L-glutamine and Pennicilin/Streptomycin. • Compounds: Supplied usually as a 10 mM stock in 100% DMSO. • Normal Saline: 150 mM NaCl • Trichloroacetic Acid (TCA): 50% (w/v) in water • Sulforhodamine B (SRB): 0.4% (w/v) in 1% Acetic Acid • Tris Base: 10 mM in water
(§2) Cells are plated at 2000 cells per well for cell line LoVo and 1500 cells for cell line CaCo-2 in 96 well plates. Cells are plated in media (200 µl) and allowed to adhere overnight at 37° C. At 24 hours post plating, compounds are added directly at a volume of 0.5 µl. For the qualitative screen (compounds screened at 25 µM) compound is added directly to cells. For the quantitative screen, compound is first diluted in DMSO to generate concentrations of compound or reference standard of: 1, 5, 10 and 25 µM. It is advisable to make the dilutions in an identical 96 well plate so that compounds may be added using a multichannel micropipettor set at 0.5 µl. The cells are then incubated for four days after which the media is removed using a 12 well manifold by first tipping the plate forward at a 45 degree angle and then inserting the manifold in an upright orientation to prevent the tips of the manifold from disturbing cells at the bottom of the plate. 200 µl of normal saline is then added to each well using an 8 well multichannel pipettor, followed by the careful addition of 50 µl of 50% TCA. The plates are then incubated for 2 hours at 4 ° C, after which the supernatant is removed using the same technique as above and the plated washed twice with 200 µl water. The plates are then air dried and 50 µl of SRB stock solution is carefully added so that the entire bottom of each well is covered. This again may be used using an 8 well multichannel pipettor. The SRB is incubated with fixed cells for 15 minutes at room temperature after which the SRB is removed with the manifold as described above and the plates washed twice with 350 µl of 1% acetic acid per well each time.The plates are then air dried after which the bound SRB is released from protein by the addition of 200 µl of Tris base. Resolubilizing the SRB is aided by placing the plates on a rotator for 15-30 minutes. The absorbance of each well is determined at 550 or 562 nm using a microtiter plate reader.
(§3) Each compound or dilution thereof is performed in triplicate. Outliers are identified by visual inspection of the data. Each plate should have a "0" control (vehicle only).
(§4) Quantitative Assay: A standard curve is constructed by plotting the concentration of compound against the average absorbance calculated at that concentration. A curve is plotted and the concentration at which the curve passes through the 50% the absorbance mark seen in the "0" control well is the IC50 calculated for that compound. […]

In experiment [2] the target is T1, Raf-1 (c-Raf) (Homo sapiens, UniProt P04049).
T1 construct: Sf9 insect cell lysate containing full length 6his-tagged recombinant human c-Raf; 6his; host or cells: Sf9 insect cells (c-Raf, used as lysate); E. coli (GST-MEK1, GST-MAPK)
Put plainly: Raf1 Kinase Cascade Assay. It is filed as biochemical. On the procedure:
(Specific Activity: -200U/ml). Human Non-active Mek-1-GST and human GST-MAP kinase (recombinant proteins produced in E. coli).
• Assay Dilution Buffer (ADB); 20mM MOPS, pH 7.2, 25mM β-glycerol phosphate, 5mM EGTA, 1mM sodium orthovanadate, 1mM dithiothreitol. • Magnesium/ATP Cocktail: 500µM cold ATP and 75 mM magnesium chloride in ADB. • Active Kinase: Human Active c-Raf: Use at 0.4U per assay point. • Non-active GST-MEK1: Use at 0.1 µg per assay point. • Non-active GST-p42 MAP Kinase: Use at 1.0 µg per assay point.
• TBST - Tris (50 mM, pH 7.5), NaCl (150 mM), Tween-20 (0.05 %) • Superblock (Pierce) • Anti-GST Ab (Pharmacia) • Anti-Phospho MAPK (Sigma) • Anti-Mouse Ab / Europium conjugate (Wallac)
IC50 determinations - done on compounds from single point assays with >80% inhibition. Typically Raf-1 assay is run at compound concentrations from 10 µM to 30 nM in half log dilutions. (% inhibition is determined for each compound concentration).

Experiment [3] relates to human adenocarcinoma cell line CaCo-2. Put plainly: Cell Based Screen for Inhibitors of Raf Kinase, CaCo-2 cells. The following applies: CaCo-2, four days, SRB. As to the method: as §1, §2, §3, §4

Several values for one entry are separate records, joined by “and”; a condition that tells them apart may be missing. Identical values can stand only once. Where only a bound is given, the exact number is not on record here.

The text below walks through data of patent EP1268431B1 (Wyeth, priority 2000, dated 2001).

Turning to `Cn1ccnc1Sc1ccc(Nc2c(C#N)cnc3cc(-c4ccc(CN5CCNCC5)cc4)ccc23)cc1Cl` [Example 97, 4-({3-Chloro-4-[(1-methyl-1H-imidazol-2-yl)sulfanyl]phenyl}amino)-7-[4-(1-piperazinylmethyl)phenyl]-3-quinolinecarbonitrile], the results for the IC50 in experiment [1], in experiment [2] and in experiment [3] were 33 nM, 16 nM and above 1000 nM, respectively.

For “4-{3-chloro-4-[(1-methyl-1H-imidazol-2-yl)sulfanyl]anilino}-7-[4-(1-piperidinylmethyl)phenyl]-3-quinolinecarbonitrile [Example 136]”, the IC50 is 11 nM in experiment [1]; 2.5 nM and 1.8 nM in experiment [2]; above 1000 nM in experiment [3].

On to `Cn1ccnc1Sc1ccc(Nc2c(C#N)cnc3cc(-c4ccc(CN5CCCCC5)o4)ccc23)cc1Cl` [Example 155, 4-{3-chloro-4-[(1-methyl-1H-imidazol-2-yl)sulfanyl]anilino}-7-[5-(1-piperidinylmethyl)-2-furyl]-3-quinolinecarbonitrile], for which the IC50 in experiment [2] was determined as 20 nM.

Turning to `N#Cc1cnc2cc(-c3csc(CN4CCCCC4)c3)ccc2c1Nc1ccc(Sc2ccccc2)c(Cl)c1` [Example 462, 4-{[3-chloro-4-(phenylsulfanyl)phenyl]amino}-7-[5-(1-piperidinylmethyl)-3-thienyl]-3-quinolinecarbonitrile], the half-inhibitory concentration (IC50) in experiment [2] was 50 nM.

As to “4-{3-chloro-4-[(1-methyl-1H-imidazol-2-yl)sulfanyl]anilino}-7-{5-[(4-ethyl-1-piperazinyl)methyl]-2-furyl}-3-quinolinecarbonitrile [Example 156]”, the IC50 in experiment [1] was 5.6 nM; in experiment [2], 9 nM and 12 nM; in experiment [3], 1000 nM.

As to `Cn1ccnc1Sc1ccc(Nc2c(C#N)cnc3cc(-c4csc(CN5CCOCC5)c4)ccc23)cc1Cl` [Example 33, 4-{3-Chloro-4-[(1-methyl-1H-imidazol-2-yl)sulfanyl]anilino}-7-[5-(4-morpholinylmethyl)-3-thienyl]-3-quinolinecarbonitrite], the IC50 in experiment [1] and in experiment [2] was 6 nM throughout.

Regarding “4-({3-chloro-4-[(1-methyl-1H-imidazol-2-yl)sulfanyl]phenyl}amino)-7-[6-(1-piperidinyl)-3-pyridinyl]-3-quinolinecarbonitrile [Example 211]”, the half-inhibitory concentration (IC50) is 5.3 nM in experiment [1], 6 nM in experiment [2] and above 1000 nM in experiment [3].

For `Cn1ccnc1Sc1ccc(Nc2c(C#N)cnc3cc(-c4cnc(N5CCOCC5)nc4)ccc23)cc1Cl` [Example 191, 4-{3-chloro-4-[(1-methyl-1H-imidazol-2-yl)sufanyl]anilino}-7-[2-(4-morpholinyl)-5-pyrimidinyl]-3-quinolinecarbonitrile], the IC50 in experiment [1] was 30 nM; in experiment [2] it was 1 nM; in experiment [3] it was above 10000 nM.

Turning to `N#Cc1cnc2cc(-c3cc(CN4CCOCC4)c(CN4CCOCC4)s3)ccc2c1Nc1ccc(Oc2ccccc2)cc1` [Example 168, 7-[4,5-bis(4-morpholinylmethyl)-2-thienyl]-4-(4-phenoxyanilino)-3-quinolinecarbonitrile], the IC50 in experiment [1] (Homo sapiens, 96 h) was 2000 nM; in experiment [3] (Homo sapiens, Caco-2, 96 h) it was 4600 nM.

As for `Cn1ccnc1Sc1ccc(Nc2c(C#N)cnc3cc(-c4cccc(CN5CCOCC5)n4)ccc23)cc1Cl` [Example 199, 4-{3-chloro-4-[(1-methyl-1H-imidazol-2-yl)sulfanyl]anilino}-7-[6-(4-morpholinylmethyl)-2-pyridinyl]-3-quinolinecarbonitrile], the IC50 was 9.5 nM in experiment [1] (Homo sapiens, 96 h) and above 1000 nM in experiment [3] (Homo sapiens, Caco-2, 96 h).

For the compound `N#Cc1cnc2cc(-c3ccc(CN4CCOCC4)cn3)ccc2c1Nc1ccc(Oc2ccccc2)cc1` [Example 56, 7-[5-(4-Morpholinylmethyl)-2-pyridinyl]-4-(4-phenoxyanilino)-3-quinolinecarbonitrile], the half-inhibitory concentration (IC50) was 290 nM in experiment [1] (Homo sapiens, 96 h); 440 nM and 310 nM in experiment [1]; 600 nM in experiment [3]; 1000 nM in experiment [3] (Homo sapiens, Caco-2, 96 h).

In the case of `CCN1CCN(c2ccc(-c3ccc4c(Nc5ccc(Sc6nccn6C)c(Cl)c5)c(C#N)cnc4c3)nc2)CC1` [Example 108, 4-({3-Chloro-4-[(1-methyl-1H-imidazol-2-yl)sulfanyl]phenyl}amino)-7-[5-(4-ethyl-1-piperazinyl)-2-pyridinyl]-3-quinolinecarbonitrile], the IC50 in experiment [1] (Homo sapiens, 96 h) is 2.6 nM; in experiment [3] (Homo sapiens, Caco-2, 96 h), 390 nM.

On to `Cn1ccnc1Sc1ccc(Nc2c(C#N)cnc3cc(-c4ccc(N5CCC(N6CCCC6)CC5)nc4)ccc23)cc1Cl` [Example 210, 4-({3-chloro-4-[(1-methyl-1H-imidazol-2-yl)sulfanyl]phenyl}amino)-7-{6-[4-(1-pyrrolidinyl)-1-piperidinyl]-3-pyridinyl}-3-quinolinecarbonitrile], for which the concentration for half-maximal inhibition (IC50) came out at 3.2 nM in experiment [1] (Homo sapiens, 96 h) and 590 nM in experiment [3] (Homo sapiens, Caco-2, 96 h).

For the compound `Cn1ccnc1Sc1ccc(Nc2c(C#N)cnc3cc(-c4ccc(CN5CCC(N6CCCC6)CC5)cn4)ccc23)cc1Cl` [Example 173, 4-{3-chloro-4-[(1-methyl-1H-imidazol-2-yl)sulfanyl]anilino}-7-(5-{[4-(1-pyrrolidinyl)-1-piperidinyl]methyl}-2-pyridinyl)-3-quinolinecarbonitrile], the half-maximal inhibitory concentration (IC50) in experiment [1] (Homo sapiens, 96 h) was 25 nM; in experiment [3] (Homo sapiens, Caco-2, 96 h), above 1000 nM.

Regarding `Cn1ccnc1Sc1ccc(Nc2c(C#N)cnc3cc(-c4ccc(C(=O)N5CCOCC5)cc4)ccc23)cc1Cl` [Example 129, 4-({3-Chloro-4-[(1-methyl-1H-imidazol-2-yl)sulfanyl]phenyl}amino)-7-[4-(4-morpholinylcarbonyl)phenyl]-3-quinolinecarbonitrile], the IC50 was 42 nM in experiment [1] (Homo sapiens, 96 h) and above 1000 nM in experiment [3] (Homo sapiens, Caco-2, 96 h).

For `Cn1ccnc1Sc1ccc(Nc2c(C#N)cnc3cc(-c4ccc(CN5CCOCC5)o4)ccc23)cc1Cl` [Example 154, 4-{3-chloro-4-[(1-methyl-1H-imidazol-2-yl)sulfanyl]anilino}-7-[5-(4-morpholinylmethyl)-2-furyl]-3-quinolinecarbonitrile], the half-inhibitory concentration (IC50) was 6.8 nM in experiment [1] (Homo sapiens, 96 h) and above 1000 nM in experiment [3] (Homo sapiens, Caco-2, 96 h).

In the case of `COc1cc2c(Nc3ccc(Sc4nccn4C)c(Cl)c3)c(C#N)cnc2cc1-c1csc(CN2CCN(C)CC2)c1` [Example 126, 4-{3-Chloro-4-[(1-methyl-1H-imidazol-2-yl)sulfanyl]anilino}-6-methoxy-7-{5-[(4-methyl-1-piperazinyl)methyl]-3-thienyl}-3-quinolinecarbonitrile], the IC50 in experiment [1] (Homo sapiens, 96 h) is 75 nM; in experiment [3] (Homo sapiens, Caco-2, 96 h), above 1000 nM.

Regarding `COC(=O)C1CCN(Cc2ccc(-c3ccc4c(Nc5ccc(Sc6nccn6C)c(Cl)c5)c(C#N)cnc4c3)nc2)CC1` [Example 107, Methyl 1-{[6-(4-{3-chloro-4-[(1-methyl-1H-imidazol-2-yl)sulfanyl]anilino}-3-cyano-7-quinolinyl)-3-pyridinyl]methyl}-4-piperidinecarboxylate], the concentration for half-maximal inhibition (IC50) was 25 nM in experiment [1] (Homo sapiens, 96 h) and above 1000 nM in experiment [3] (Homo sapiens, Caco-2, 96 h).

Regarding `Cn1ccnc1Sc1ccc(Nc2c(C#N)cnc3cc(-c4ccc(C=O)cn4)ccc23)cc1Cl` [Example 170, 4-{3-chloro-4-[(1-methyl-1H-imidazol-2-yl)sulfanyl]anilino}-7-(5-formyl-2-pyridinyl)-3-quinolinecarbonitrile], the half-maximal inhibitory concentration (IC50) in experiment [1] (Homo sapiens, 96 h) is 50 nM; in experiment [3] it was 5000 nM; in experiment [3] (Homo sapiens, Caco-2, 96 h), above 10000 nM.

A word on the IC50: it is the concentration at which inhibition is half-maximal. High values mean a need for much substance, low ones inhibition by little substance.
